Assay results: ChEMBL document CHEMBL1129837, “Quantitative structure-activity relationships of benzoyliminothiadiazoline derivatives as angiotensin II receptor antagonists” (Bioorg Med Chem Lett, 1997)

Biological target: T1, Type-1 angiotensin II receptor B (Rattus norvegicus, UniProt P29089)
T1 sequence (P29089 whole entry): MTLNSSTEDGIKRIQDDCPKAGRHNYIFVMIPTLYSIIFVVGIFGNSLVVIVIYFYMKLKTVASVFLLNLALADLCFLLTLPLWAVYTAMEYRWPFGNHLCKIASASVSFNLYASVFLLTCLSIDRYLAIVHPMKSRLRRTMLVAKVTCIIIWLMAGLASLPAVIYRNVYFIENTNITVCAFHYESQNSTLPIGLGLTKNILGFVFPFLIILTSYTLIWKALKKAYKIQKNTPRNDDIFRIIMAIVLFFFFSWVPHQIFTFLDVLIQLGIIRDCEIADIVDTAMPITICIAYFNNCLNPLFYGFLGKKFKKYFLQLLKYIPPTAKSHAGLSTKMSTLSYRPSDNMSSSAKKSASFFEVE
Assay: Inhibition of binding of [125I]All at the angiotensin II type 1 receptor (AT1 receptor) in rat liver membranes
Assay type: cell membranes, Membrane

SMILES | Ki
CCc1nn(Cc2ccc(-c3ccccc3-c3nn[nH]n3)cc2)/c(=N/C(=O)c2ccc(C(F)(F)F)cc2)s1 | 557 nM
CCc1nn(Cc2ccc(-c3ccccc3-c3nn[nH]n3)cc2)/c(=N/C(=O)c2ccc(C)cc2)s1 | 48 nM
CCc1nn(Cc2ccc(-c3ccccc3-c3nn[nH]n3)cc2)/c(=N/C(=O)c2cccc(C)c2)s1 | 79.4 nM
Cc1nn(Cc2ccc(-c3ccccc3-c3nn[nH]n3)cc2)/c(=N/C(=O)c2ccccc2Cl)s1 | 18 nM
CCc1nn(Cc2ccc(-c3ccccc3-c3nn[nH]n3)cc2)/c(=N/C(=O)c2ccc([N+](=O)[O-])cc2)s1 | 141 nM
CCc1nn(Cc2ccc(-c3ccccc3-c3nn[nH]n3)cc2)/c(=N/C(=O)c2ccccc2C)s1 | 35.9 nM
CCc1nn(Cc2ccc(-c3ccccc3-c3nn[nH]n3)cc2)/c(=N/C(=O)c2ccccc2I)s1 | 3.86 nM
CCc1nn(Cc2ccc(-c3ccccc3-c3nn[nH]n3)cc2)/c(=N/C(=O)c2ccccc2[N+](=O)[O-])s1 | 3.23 nM
O=C(/N=c1\sc(C2CC2)nn1Cc1ccc(-c2ccccc2-c2nn[nH]n2)cc1)c1ccccc1Cl | 15.1 nM
CCc1nn(Cc2ccc(-c3ccccc3-c3nn[nH]n3)cc2)/c(=N/C(=O)c2ccccc2F)s1 | 7.24 nM
CCc1nn(Cc2ccc(-c3ccccc3-c3nn[nH]n3)cc2)/c(=N/C(=O)c2cccc(F)c2)s1 | 134 nM
Cc1nn(Cc2ccc(-c3ccccc3-c3nn[nH]n3)cc2)/c(=N/C(=O)c2ccccc2C(=O)O)s1 | 2.69 nM
CCCCc1nn(Cc2ccc(-c3ccccc3-c3nn[nH]n3)cc2)/c(=N/C(=O)c2ccccc2Cl)s1 | 200 nM
CCCc1nn(Cc2ccc(-c3ccccc3-c3nn[nH]n3)cc2)/c(=N/C(=O)c2ccccc2Cl)s1 | 22 nM
CCc1nn(Cc2ccc(-c3ccccc3-c3nn[nH]n3)cc2)/c(=N/C(=O)c2ccc(OC)cc2)s1 | 28 nM
CCc1nn(Cc2ccc(-c3ccccc3-c3nn[nH]n3)cc2)/c(=N/C(=O)c2ccccc2C(F)(F)F)s1 | 6 nM
CCc1nn(Cc2ccc(-c3ccccc3-c3nn[nH]n3)cc2)/c(=N/C(=O)c2ccccc2)s1 | 36 nM
CCc1nn(Cc2ccc(-c3ccccc3-c3nn[nH]n3)cc2)/c(=N/C(=O)c2ccccc2Cl)s1 | 3.39 nM
CCc1nn(Cc2ccc(-c3ccccc3-c3nn[nH]n3)cc2)/c(=N/C(=O)c2cccc(Cl)c2)s1 | 190 nM
CCc1nn(Cc2ccc(-c3ccccc3-c3nn[nH]n3)cc2)/c(=N/C(=O)c2ccc(Br)cc2)s1 | 320 nM
CCc1nn(Cc2ccc(-c3ccccc3-c3nn[nH]n3)cc2)/c(=N/C(=O)c2ccccc2Br)s1 | 3.47 nM
CCc1nn(Cc2ccc(-c3ccccc3-c3nn[nH]n3)cc2)/c(=N/C(=O)c2ccc(F)cc2)s1 | 102 nM
CCc1nn(Cc2ccc(-c3ccccc3-c3nn[nH]n3)cc2)/c(=N/C(=O)c2ccccc2OC)s1 | 2.5 nM
CCc1nn(Cc2ccc(-c3ccccc3-c3nn[nH]n3)cc2)/c(=N/C(=O)c2ccc(Cl)cc2)s1 | 330 nM
CCCc1nn(Cc2ccc(-c3ccccc3-c3nn[nH]n3)cc2)/c(=N/C(=O)c2ccccc2C(=O)O)s1 | 2 nM
CCc1nn(Cc2ccc(-c3ccccc3-c3nn[nH]n3)cc2)/c(=N/C(=O)c2cccc(C(F)(F)F)c2)s1 | 447 nM
CCc1nn(Cc2ccc(-c3ccccc3-c3nn[nH]n3)cc2)/c(=N/C(=O)c2cccc(Br)c2)s1 | 300 nM
CCc1nn(Cc2ccc(-c3ccccc3-c3nn[nH]n3)cc2)/c(=N/C(=O)c2ccccc2C(=O)O)s1 | 0.619 nM
CCc1nn(Cc2ccc(-c3ccccc3-c3nn[nH]n3)cc2)/c(=N/C(=O)c2cccc([N+](=O)[O-])c2)s1 | 141 nM
CCc1nn(Cc2ccc(-c3ccccc3-c3nn[nH]n3)cc2)/c(=N/C(=O)c2cccc(OC)c2)s1 | 49 nM
